Test results as given in US11166924B2, “N-methyl-d-aspartate receptor allosteric modulators and methods for their use” (Qingdao Primedicine Pharmaceutical Company, Ltd., priority 2016, dated 2021).

How the values were obtained:
GluN1 or GluN2A mutants = assay: Patch clamp in HEK293 cells, another 8 mutations within the defined pocket (summary); format: cell-based, rat
Protocol: Whole cell patch-clamp recordings were performed under voltage-clamp mode using an Axopatch 200B or 1D patch-clamp amplifier (Molecular Devices). Whole-cell currents were recorded at a holding potential of −60 mV unless indicated elsewhere, and signals were filtered at 2 kHz, digitized at 10 kHz (Digidata 1322A). Recording pipettes (3-5 MΩ) were filled with intracellular solution containing (mM): CsCl 140, HEPES 10, Mg-ATP 4, QX-314 5, pH 7.20; osmolarity, 290-295 mOsm. BAPTA (10 mM) was added in the intracellular solution (unless otherwise specified). The coverslips were continuously superfused with extracellular solution containing (mM): NaCl 140, KCl 5.4, HEPES 10, CaCl2 1.3, glucose 20, pH 7.4; osmolarity, 305-315 mOsm. NMDA-induced currents were applied by NMDA through perfusion fast-step (Warner Instruments). With perfusion fast-step system, NMDA application was achieved by using a two-square barrel glass tubing and depending on the age of the cultured neurons, CNQX (10 μM), TTX (0.5 μM) or BIC (10 μM) were added in the extracellular solution to minimize the activation of ionotropic glutamate receptors and voltage-gated sodium channels, respectively. All experiments were performed at room temperature. Recordings from at least six HEK293 cells/neurons were performed for all active compounds. […]

[1] = test system: CREB phosphorylation (pCREB) on Serine 133; assay: pCREB levels in hippocampal slices; parameters: species or system rat; conditions: 10 μM; 30 min exposure; FIG. 21
Protocol: Male Sprague Dawley rats 4-8 weeks old (125-200 gm) were decapitated, and their brains were dissected rapidly and placed into ice-cold chopping saline [containing (in mM): 110 sucrose, 60 NaCl, 3 KCl, 1.25 NaH2PO4, 28 NaHCO3, 5 D-glucose, 0.5 CaCl2, 7 MgCl2, and 0.6 ascorbate, saturated with 95% O2/5% CO2]. Then 400 μm transverse slices were prepared with a Vibratome Series 1000 (Pelco, Ted Pella, Redding, Calif.). Slices were transferred immediately into a 1:1 mix of chopping saline and normal ACSF [containing (in mM): 125 NaCl, 2.5 KCl, 1.25 NaH2PO4, 25 NaHCO3, 10 D-glucose, 2 CaCl2, and 1 MgCl2, saturated with 95% O2/5% CO2] and maintained at room temperature for at least 90 min. Then the slices were transferred to ACSF at 32° C. in a submersion chamber for 45-60 min before pharmacological stimulation.
Brain tissues or cultured cells were lysed on ice in the lysis buffer and then the solution was centrifuged at 14,000 rpm for 10 min at 4° C. Next, the supernatant was collected and protein concentrations were determined using a BCA protein assay kit (Thermo Scientific, 23227). […] The band density of each protein was quantified by the Bio-Rad Quantity One software and the relative optical density was analyzed relative to loading total-CREB on the same membrane. […]

[2] = test system: post-stroke locomotory behavior; assay: Neurological behavioral tests after stroke; format: in vivo, rat; conditions: 28 days after stroke onset, versus untreated control rats
Protocol: To assess functional recovery of neural circuits damaged by ischemic insult, three locomotor activity (sensorimotor) deficit modalities were tested: 1) vertical activity (the total number of beam interruptions that occurred in the vertical sensor); 2) number of vertical movements (number of animal rears); and 3) vertical movement time (the amount of time, in seconds, the animal rears) using the VersaMax Animal Activity Monitor (Accuscan Instruments). An ischemic rat was placed into the recording chamber during the ‘dark’ phase of the day/night cycle, and vertical movement time (seconds) was automatically recorded by computer over a 2 h period. The total length of vertical movement represents the recovery of locomotor circuits injured by ischemic stroke.
Neurobehavioral assays were performed to assess functional recovery of neurons post-stroke.

With CCOc1cc(Cl)c(Cl)c(/C=N/NC(=O)c2ccccc2Br)c1O [Npam43, (E)-2-bromo-N′-(2,3-dichloro-5-ethoxy-6-hydroxybenzylidene)benzohydrazide] the Reduction in potentiation (GluN1 or GluN2A mutants) was 10-62%, the “pCREB levels in hippocampal slices” value [1] was “significantly enhanced pCREB levels” and the Post-stroke locomotory behavior [2] was “increased post-stroke locomotory behavior”.
